Structures are written as SMILES. ≈ marks a conversion by molar mass, not a printed value. Read-outs that look alike come from different tables or passages of the source.

For this assay, the system named is pathogenic bacteria. The experiment in a line: MIC by microdilution broth method (NCCLS M7-A4), in vitro antibacterial activity. Format: cell-based. The essentials:
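MIC read after 35 °C incubation for 16–20 h relative to drug-free growth wells. Cation-adjusted Mueller-Hinton broth with two-fold compound dilutions, organisms at roughly 5×10^4 CFU/well final. Method follows NCCLS document M7-A4.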

[1] abbreviates: Staphylococcus aureus, Organism A: Staphylococcus aureus OC4172, read-out: MIC.
The mark [2] stands for this setting: Streptococcus pneumoniae, ATCC49619, Organism E: Streptococcus pneumoniae ATCC 49619, read-out: MIC.
The mark [3] stands for this setting: Streptococcus pneumoniae, Organism B: fluoroquinolone-resistant clinical isolate of Streptococcus pneumoniae (QRDR amino acid substitutions).
The mark [4] stands for this setting: Streptococcus pneumoniae, Organism C: fluoroquinolone-resistant clinical isolate of Streptococcus pneumoniae (QRDR amino acid substitutions).
Setting [5] is: Streptococcus pneumoniae, Organism D: fluoroquinolone-resistant clinical isolate of Streptococcus pneumoniae (QRDR amino acid substitutions).

On to `COc1c(N2CCC/C(=C(\F)CN)C2)c(F)c(C)c2c(=O)c(C(=O)O)cn(C3CC3)c12` [Compound 458, 7-[(E)-3-(2-Amino-1-fluoro-ethylidene)-piperidin-1-yl]-1-cyclopropyl-6-fluoro-8-methoxy-5-methyl-4-oxo-1,4-dihydro-quinoline-3-carboxylic Acid], for which the MIC is no more than 0.015 µg/mL under setting [1]; 0.06 µg/mL (≈ 0.138 µM) under setting [2]; 0.03 µg/mL (≈ 0.0692 µM) under setting [3]; 0.25 µg/mL (≈ 0.577 µM) under setting [4]; 0.25 µg/mL (≈ 0.577 µM) under setting [5].

As for `Cc1c(N2CCC/C(=C(\F)CN)C2)c(F)cc2c(=O)c(C(=O)O)cn(C3CC3)c12` [Compound 459, 7-[(E)-3-(2-Amino-1-fluoro-ethylidene)-piperidin-1-yl]-1-cyclopropyl-6-fluoro-8-methyl-4-oxo-1,4-dihydro-quinoline-3-carboxylic Acid], the MIC runs as follows: under setting [1], no more than 0.015 µg/mL; under setting [2], 0.06 µg/mL (≈ 0.149 µM); under setting [4], 0.25 µg/mL (≈ 0.62 µM); under setting [5], 0.12 µg/mL (≈ 0.297 µM).

With `COc1c(N2CCC(=C(F)CCN)CC2)c(F)cc2c(=O)c(C(=O)O)cn(C3CC3)c12` [Compound 467, 7-{4-[3-Amino-1-fluoro-propylidene]-piperidin-1-yl}-1-cyclopropyl-6-fluoro-8-methoxy-4-oxo-1,4-dihydro-quinoline-3-carboxylic Acid], the minimum inhibitory concentration (MIC) is, setting by setting: under setting [1], 0.12 µg/mL (≈ 0.277 µM); under setting [2], 0.5 µg/mL (≈ 1.15 µM); under setting [3], 0.5 µg/mL (≈ 1.15 µM); under setting [4], 4 µg/mL (≈ 9.23 µM); under setting [5], 1 µg/mL (≈ 2.31 µM).

On to `C[C@H]1COc2c(N3CCC/C(=C(/F)CN)CC3)c(F)cc3c(=O)c(C(=O)O)cn1c23` [Compound 491, (3S)-9-[(Z)-4-(2-Amino-1-fluoro-ethylidene)-azepan-1-yl]-8-fluoro-3-methyl-6-oxo-2,3-dihydro-6H-1-oxa-3a-aza-phenalene-5-carboxylic Acid], for which the minimal inhibitory concentration (MIC) under setting [1] stood at 0.12 µg/mL (≈ 0.286 µM), the minimum inhibitory concentration (MIC) under setting [2] came to 1 µg/mL (≈ 2.38 µM), it took 8 µg/mL (≈ 19.1 µM) to inhibit growth under setting [4] (MIC) and inhibition of growth under setting [5] (MIC) required 16 µg/mL (≈ 38.1 µM).

Regarding `C[C@H]1COc2c(N3CCC/C(=C(\F)CN)CC3)c(F)cc3c(=O)c(C(=O)O)cn1c23` [Compound 492, (3S)-9-[(E)-4-(2-Amino-1-fluoro-ethylidene)-azepan-1-yl]-8-fluoro-3-methyl-6-oxo-2,3-dihydro-6H-1-oxa-3a-aza-phenalene-5-carboxylic Acid], the minimal inhibitory concentration (MIC) is, setting by setting: under setting [1], 0.06 µg/mL (≈ 0.143 µM); under setting [2], 0.25 µg/mL (≈ 0.596 µM); under setting [4], 4 µg/mL (≈ 9.54 µM); under setting [5], 8 µg/mL (≈ 19.1 µM).

As for `C[C@H]1COc2c(N3CCOC/C(=C(\F)CN)C3)c(F)cc3c(=O)c(C(=O)O)cn1c23` [Compound 493, 9-[(Z)-6-(2-Amino-1-fluoro-ethylidene)-[1,4]oxazepan-4-yl]-8-fluoro-(3S)-3-methyl-6-oxo-2,3-dihydro-6H-1-oxa-3a-aza-phenalene-5-carboxylic Acid], the minimum inhibitory concentration (MIC) is, setting by setting: under setting [1], 0.06 µg/mL (≈ 0.142 µM); under setting [2], 0.5 µg/mL (≈ 1.19 µM); under setting [4], greater than 16 µg/mL; under setting [5], 1 µg/mL (≈ 2.37 µM).

Consider `C[C@H]1COc2c(N3CCOC/C(=C(/F)CN)C3)c(F)cc3c(=O)c(C(=O)O)cn1c23` [Compound 494, 9-[(E)-6-(2-Amino-1-fluoro-ethylidene)-[1,4]oxazepan-4-yl]-8-fluoro-(3S)-3-methyl-6-oxo-2,3-dihydro-6H-1-oxa-3a-aza-phenalene-5-carboxylic Acid], for which the minimal inhibitory concentration (MIC) was 1 µg/mL (≈ 2.37 µM) under setting [1], 8 µg/mL (≈ 19 µM) under setting [2], greater than 16 µg/mL under setting [4] and greater than 16 µg/mL under setting [5].

Turning to `NC/C(F)=C1\CCCN(c2nc3c(cc2F)c(=O)c(C(=O)O)cn3C2CC2)CC1` [Compound 495, (Z)-7-[4-(2-Amino-1-fluoro-ethylidene)-azepan-1-yl]-1-cyclopropyl-6-fluoro-4-oxo-1,4-dihydro-[1,8]naphthyridine-3-carboxylic acid], the minimal inhibitory concentration (MIC) runs as follows: under setting [1], 0.25 µg/mL (≈ 0.618 µM); under setting [2], 1 µg/mL (≈ 2.47 µM); under setting [4], 2 µg/mL (≈ 4.95 µM).

For the compound `NC/C(F)=C1/CCCN(c2nc3c(cc2F)c(=O)c(C(=O)O)cn3C2CC2)CC1` [Compound 496, (E)-7-[4-(2-Amino-1-fluoro-ethylidene)-azepan-1-yl]-1-cyclopropyl-6-fluoro-4-oxo-1,4-dihydro-[1,8]naphthyridine-3-carboxylic acid], the MIC runs as follows: under setting [1], 0.25 µg/mL (≈ 0.618 µM); under setting [2], 1 µg/mL (≈ 2.47 µM); under setting [4], 0.25 µg/mL (≈ 0.618 µM); under setting [5], 16 µg/mL (≈ 39.6 µM).

For the compound `NC/C(F)=C1/COCCN(c2nc3c(cc2F)c(=O)c(C(=O)O)cn3C2CC2)C1` [Compound 497, (Z)-7-[6-(2-Amino-1-fluoro-ethylidene)-[1,4]oxazepan-4-yl]-1-cyclopropyl-6-fluoro-4-oxo-1,4-dihydro-[1,8]naphthyridine-3-carboxylic acid], the minimum inhibitory concentration (MIC) is, setting by setting: under setting [1], 1 µg/mL (≈ 2.46 µM); under setting [2], 4 µg/mL (≈ 9.84 µM); under setting [3], greater than 1 µg/mL; under setting [4], greater than 16 µg/mL; under setting [5], greater than 16 µg/mL.

For `NC/C(F)=C1\COCCN(c2nc3c(cc2F)c(=O)c(C(=O)O)cn3C2CC2)C1` [Compound 498, (E)-7-[6-(2-Amino-1-fluoro-ethylidene)-[1,4]oxazepan-4-yl]-1-cyclopropyl-6-fluoro-4-oxo-1,4-dihydro-[1,8]naphthyridine-3-carboxylic acid], the MIC under setting [1] was found to be 1 µg/mL (≈ 2.46 µM); the minimal inhibitory concentration (MIC) under setting [2] worked out at 16 µg/mL (≈ 39.4 µM); it took 4 µg/mL (≈ 9.84 µM) to inhibit growth under setting [3] (MIC); the MIC under setting [4] is greater than 16 µg/mL; the MIC under setting [5] was greater than 16 µg/mL.

Take `C[C@H]1CN(c2nc3c(cc2F)c(=O)c(C(=O)O)cn3C2CC2)C/C(=C(/F)CN)CO1` [Compound 499, (Z)-7-[6-(2-Amino-1-fluoro-ethylidene)-(2S)-2-methyl-[1,4]oxazepan-4-yl]-1-cyclopropyl-6-fluoro-4-oxo-1,4-dihydro-[1,8]naphthyridine-3-carboxylic acid]: the MIC was 8 µg/mL (≈ 19 µM) under setting [1]; greater than 16 µg/mL under setting [2]; greater than 16 µg/mL under setting [3]; greater than 16 µg/mL under setting [4]; greater than 16 µg/mL under setting [5].

For `C[C@@H]1CN(c2nc3c(cc2F)c(=O)c(C(=O)O)cn3C2CC2)C/C(=C(/F)CN)CO1` [Compound 500, (Z)-7-[6-(2-Amino-1-fluoro-ethylidene)-(2R)-2-methyl-[1,4]oxazepan-4-yl]-1-cyclopropyl-6-fluoro-4-oxo-1,4-dihydro-[1,8]naphthyridine-3-carboxylic acid], the MIC under setting [1] turned out to be 2 µg/mL (≈ 4.76 µM); the MIC under setting [2] was determined as 16 µg/mL (≈ 38.1 µM); the MIC under setting [3] was greater than 16 µg/mL; the MIC under setting [4] was greater than 16 µg/mL; the MIC under setting [5] is greater than 16 µg/mL.

Take `NC/C(F)=C1\CCCN(c2cc3c(cc2F)c(=O)c(C(=O)O)cn3C2CC2)CC1` [Compound 501, (Z)-7-[4-(2-Amino-1-fluoro-ethylidene)-azepan-1-yl]-1-cyclopropyl-6-fluoro-4-oxo-1,4-dihydro-quinoline-3-carboxylic acid]: the minimum inhibitory concentration (MIC) came to 0.25 µg/mL (≈ 0.62 µM) under setting [1], 2 µg/mL (≈ 4.96 µM) under setting [2], 8 µg/mL (≈ 19.8 µM) under setting [4] and 16 µg/mL (≈ 39.7 µM) under setting [5].

`NC/C(F)=C1/CCCN(c2cc3c(cc2F)c(=O)c(C(=O)O)cn3C2CC2)CC1` [Compound 502, (E)-7-[4-(2-Amino-1-fluoro-ethylidene)-azepan-1-yl]-1-cyclopropyl-6-fluoro-4-oxo-1,4-dihydro-quinoline-3-carboxylic acid]: the MIC is 0.5 µg/mL (≈ 1.24 µM) under setting [1]; 4 µg/mL (≈ 9.92 µM) under setting [2]; 16 µg/mL (≈ 39.7 µM) under setting [3]; 16 µg/mL (≈ 39.7 µM) under setting [4]; greater than 16 µg/mL under setting [5].

`NC/C(F)=C1/COCCN(c2cc3c(cc2F)c(=O)c(C(=O)O)cn3C2CC2)C1` [Compound 503, (Z)-7-[6-(2-Amino-1-fluoro-ethylidene)-[1,4]oxazepan-4-yl]-1-cyclopropyl-6-fluoro-4-oxo-1,4-dihydro-quinoline-3-carboxylic acid]: the MIC runs as follows: under setting [1], 4 µg/mL (≈ 9.87 µM); under setting [2], 16 µg/mL (≈ 39.5 µM); under setting [4], greater than 16 µg/mL; under setting [5], greater than 16 µg/mL.

With `NC/C(F)=C1\COCCN(c2cc3c(cc2F)c(=O)c(C(=O)O)cn3C2CC2)C1` [Compound 504, (E)-7-[6-(2-Amino-1-fluoro-ethylidene)-[1,4]oxazepan-4-yl]-1-cyclopropyl-6-fluoro-4-oxo-1,4-dihydro-quinoline-3-carboxylic acid], the minimal inhibitory concentration (MIC) is, setting by setting: under setting [1], 2 µg/mL (≈ 4.93 µM); under setting [2], 16 µg/mL (≈ 39.5 µM); under setting [4], 8 µg/mL (≈ 19.7 µM); under setting [5], 4 µg/mL (≈ 9.87 µM).

With `COc1c(N2CCC/C(=C(/F)CN)CC2)c(F)cc2c(=O)c(C(=O)O)cn(C3CC3)c12` [Compound 505, (Z)-7-[4-(2-Amino-1-fluoro-ethylidene)-azepan-1-yl]-1-cyclopropyl-6-fluoro-8-methoxy-4-oxo-1,4-dihydro-quinoline-3-carboxylic acid], the MIC turned out to be 0.12 µg/mL (≈ 0.277 µM) under setting [1], 0.25 µg/mL (≈ 0.577 µM) under setting [2], 4 µg/mL (≈ 9.23 µM) under setting [4] and 1 µg/mL (≈ 2.31 µM) under setting [5].

In the case of `COc1c(N2CCC/C(=C(\F)CN)CC2)c(F)cc2c(=O)c(C(=O)O)cn(C3CC3)c12` [Compound 506, (E)-7-[4-(2-Amino-1-fluoro-ethylidene)-azepan-1-yl]-1-cyclopropyl-6-fluoro-8-methoxy-4-oxo-1,4-dihydro-quinoline-3-carboxylic acid], the minimum inhibitory concentration (MIC) runs as follows: under setting [1], no more than 0.015 µg/mL; under setting [2], 0.25 µg/mL (≈ 0.577 µM); under setting [4], 2 µg/mL (≈ 4.61 µM).

For `COc1c(N2CCOC/C(=C(\F)CN)C2)c(F)cc2c(=O)c(C(=O)O)cn(C3CC3)c12` [Compound 507, (Z)-7-[6-(2-Amino-1-fluoro-ethylidene)-[1,4]oxazepan-4-yl]-1-cyclopropyl-6-fluoro-8-methoxy-4-oxo-1,4-dihydro-quinoline-3-carboxylic acid], the MIC amounted to 0.06 µg/mL (≈ 0.138 µM) under setting [1]; 0.25 µg/mL (≈ 0.574 µM) under setting [2]; 0.12 µg/mL (≈ 0.276 µM) under setting [3]; 2 µg/mL (≈ 4.59 µM) under setting [4]; 2 µg/mL (≈ 4.59 µM) under setting [5].

The values above are taken from patent publication US20090156577A1, “7-AMINO ALKYLIDENYL-HETEROCYCLIC QUINOLONES AND NAPHTHYRIDONES” (priority 2004, published 2009).
